Measurements: PubChem BioAssay AID248 (DTP/NCI, 2004)
Values joined by “and” are separate entries in the source; they are usually repeats but may differ in a detail not shown here. Identical values can stand only once. Toxic doses and inconclusive results are not listed. Rule as the data show it: active = T/C of 150% or more; inactive = T/C below 125%.

Test system: L1210 leukemia ip in BDF1 mice, survival T/C
Assay: NCI In Vivo Anticancer Drug Screen. Data for tumor model L1210 Leukemia (intraperitoneal) in B6D2F1 (BDF1) mice
Conditions: endpoint: mean survival time, higher = longer survival
How it was run: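 Transplantable tumor model; survival measured in treated vs vehicle control mice. Value = treated/control.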

[1] = dose: 100.0 mg/kg/injection, schedule: Q01DX009 (ip), vehicle: saline with Tween-80
[2] = dose: 100.0 mg/kg/injection, schedule: Q01DX009 (ip), vehicle: saline
[3] = dose: 100.0 mg/kg/injection, schedule: Q04DX003 (ip), vehicle: saline
[4] = dose: 200.0 mg/kg/injection, schedule: Q01DX009 (ip), vehicle: saline with Tween-80
[5] = dose: 200.0 mg/kg/injection, schedule: Q01DX009 (ip), vehicle: saline
[6] = dose: 200.0 mg/kg/injection, schedule: Q04DX003 (ip), vehicle: saline
[7] = dose: 400.0 mg/kg/injection, schedule: Q04DX003 (ip), vehicle: saline
[8] = dose: 100.0 mg/kg/injection, schedule: Q04DX003 (ip), vehicle: saline with Tween-80
[9] = dose: 200.0 mg/kg/injection, schedule: Q04DX003 (ip), vehicle: saline with Tween-80
[10] = dose: 400.0 mg/kg/injection, schedule: Q01DX009 (ip), vehicle: saline with Tween-80
[11] = dose: 400.0 mg/kg/injection, schedule: Q04DX003 (ip), vehicle: saline with Tween-80
[12] = dose: 10.0 mg/kg/injection, schedule: Q01DX001 (ip), vehicle: saline
[13] = dose: 20.0 mg/kg/injection, schedule: Q01DX001 (ip), vehicle: saline
[14] = dose: 25.0 mg/kg/injection, schedule: Q01DX009 (ip), vehicle: saline
[15] = dose: 40.0 mg/kg/injection, schedule: Q01DX001 (ip), vehicle: saline
[16] = dose: 50.0 mg/kg/injection, schedule: Q01DX009 (ip), vehicle: saline
[17] = dose: 50.0 mg/kg/injection, schedule: Q04DX003 (ip), vehicle: saline
[18] = dose: 80.0 mg/kg/injection, schedule: Q01DX001 (ip), vehicle: saline
[19] = dose: 100.0 mg/kg/injection, schedule: Q01DX001 (ip), vehicle: saline
[20] = dose: 200.0 mg/kg/injection, schedule: Q01DX001 (ip), vehicle: saline
[21] = dose: 400.0 mg/kg/injection, schedule: Q01DX001 (ip), vehicle: saline
[22] = dose: 100.0 mg/kg/injection, schedule: Q04DX003 (ip), vehicle: Klucel (hydroxypropylcellulose) (HPC)
[23] = dose: 200.0 mg/kg/injection, schedule: Q04DX003 (ip), vehicle: Klucel (hydroxypropylcellulose) (HPC)
[24] = dose: 400.0 mg/kg/injection, schedule: Q04DX003 (ip), vehicle: Klucel (hydroxypropylcellulose) (HPC)
[25] = dose: 100.0 mg/kg/injection, schedule: Q01DX009 (ip), vehicle: Klucel (hydroxypropylcellulose) (HPC)
[26] = dose: 100.0 mg/kg/injection, schedule: Q04DX002 (ip), vehicle: Klucel (hydroxypropylcellulose) (HPC)
[27] = dose: 200.0 mg/kg/injection, schedule: Q01DX009 (ip), vehicle: Klucel (hydroxypropylcellulose) (HPC)
[28] = dose: 200.0 mg/kg/injection, schedule: Q04DX002 (ip), vehicle: Klucel (hydroxypropylcellulose) (HPC)
[29] = dose: 400.0 mg/kg/injection, schedule: Q01DX009 (ip), vehicle: Klucel (hydroxypropylcellulose) (HPC)
[30] = dose: 400.0 mg/kg/injection, schedule: Q04DX002 (ip), vehicle: Klucel (hydroxypropylcellulose) (HPC)

Measured: T/C

CC1(C)OC(=O)CC(=O)O1
inactive: [1] 94 % of control | [2] 100 % of control | [3] 91 % of control | [4] 94 % of control | [5] 93 % of control | [6] 91 % of control | dose: 400.0 mg/kg/injection, schedule: Q01DX009 (ip), vehicle: saline 87 % of control | [7] 93 % of control

OC(c1ccccc1)(c1ccccc1)c1ccc(F)cc1
inactive: [1] 102 % of control | [8] 92 % of control | [4] 101 % of control | [9] 100 % of control | [10] 89 % of control | [11] 87 % of control

CC(N)CCc1ccccc1 (stereo not drawn)
inactive: [12] 105 % of control | dose: 12.5 mg/kg/injection, schedule: Q01DX009 (ip), vehicle: saline 97 % of control | dose: 12.5 mg/kg/injection, schedule: Q04DX003 (ip), vehicle: saline 102 % of control | [13] 101 % of control | [14] 95 % of control | dose: 25.0 mg/kg/injection, schedule: Q04DX003 (ip), vehicle: saline 112 % of control | [15] 95 % of control | [16] 97 % of control | dose: 50.0 mg/kg/injection, schedule: Q04DX003 (ip), vehicle: saline with Tween-80 90 % of control | [17] 104 % of control | [18] 101 % of control | [19] 100 % of control

CC(=O)OC(C(=O)NC(CC(C)C)C(=O)O)c1ccccc1 (stereo not drawn)
inactive: dose: 100.0 mg/kg/injection, schedule: Q01DX001 (ip), vehicle: acetone 98 % of control | dose: 200.0 mg/kg/injection, schedule: Q01DX001 (ip), vehicle: acetone 94 % of control | dose: 400.0 mg/kg/injection, schedule: Q01DX001 (ip), vehicle: acetone 98 % of control

CC(=O)NC(C=O)C(OC(C)=O)C(OC(C)=O)C(COC(C)=O)OC(C)=O (stereo not drawn)
inactive: dose: 100.0 mg/kg/injection, schedule: Q04DX002 (ip), vehicle: saline with Tween-80 100 % of control | dose: 200.0 mg/kg/injection, schedule: Q04DX002 (ip), vehicle: saline with Tween-80 107 % of control | dose: 400.0 mg/kg/injection, schedule: Q04DX002 (ip), vehicle: saline with Tween-80 96 % of control

O=C(O)C1CC(c2ccc(Cl)cc2)OC1=O (stereo not drawn)
inactive: [3] 101 % of control | [6] 104 % of control | [7] 101 % of control

CC(OC(=O)Nc1ccc(S(=O)(=O)NC2CCCCC2)cc1)(c1ccccc1)C1CCCCC1 (stereo not drawn)
inactive: [19] 105 % of control | [20] 105 % of control | [21] 100 % of control

O=C(O)CCc1ccccc1
inactive: [17] 98 % of control | [1] 92 % of control | [3] 104 % of control | [4] 95 % of control | [6] 95 % of control | [10] 86 % of control | [7] 98 % of control

NCCCNc1ccccc1
inactive: [2] 92 % of control | [5] 98 % of control

C=COC(=O)c1ccccc1 (tested in a mixture with another compound)
inactive: dose: 100.0 mg/kg/injection, schedule: Q01DX001 (ip), vehicle: other 97 % of control | [19] 110 % of control [middle of 4 runs] | dose: 200.0 mg/kg/injection, schedule: Q01DX001 (ip), vehicle: other 97 % of control | [20] 97 % of control and 105 % of control and 108 % of control | dose: 400.0 mg/kg/injection, schedule: Q01DX001 (ip), vehicle: other 86 % of control | [21] 101 % of control and 105 % of control and 108 % of control

CSCSCC(CO)NS(=O)(=O)c1ccc(C)cc1 (stereo not drawn)
inactive: [1] 107 % of control | [8] 103 % of control | [4] 109 % of control | [9] 97 % of control | [10] 98 % of control | [11] 102 % of control

CSc1ncnc2c1ncn2/N=C/C1OC(C)OCC1O (stereo not drawn)
inactive: [22] 93 % of control | [23] 98 % of control | [24] 98 % of control

COc1ccc(C[n+]2cccc(CNC(=O)COc3ccc(Cl)c(Cl)c3)c2)cc1
inactive: dose: 25.0 mg/kg/injection, schedule: Q04DX003 (ip), vehicle: Klucel (hydroxypropylcellulose) (HPC) 98 % of control | dose: 50.0 mg/kg/injection, schedule: Q04DX003 (ip), vehicle: Klucel (hydroxypropylcellulose) (HPC) 106 % of control | [22] 107 % of control and 108 % of control

CCOc1ccc(-n2c(=O)c(N=Nc3ccc(Br)cc3)c(O)n(-c3ccc(C)cc3)c2=S)cc1
inactive: dose: 50.0 mg/kg/injection, schedule: Q01DX001 (ip), vehicle: Klucel (hydroxypropylcellulose) (HPC) 95 % of control | dose: 100.0 mg/kg/injection, schedule: Q01DX001 (ip), vehicle: Klucel (hydroxypropylcellulose) (HPC) 101 % of control | dose: 200.0 mg/kg/injection, schedule: Q01DX001 (ip), vehicle: Klucel (hydroxypropylcellulose) (HPC) 101 % of control

Nc1nc(N)nc(-c2ccccc2)n1
inactive: dose: 50.0 mg/kg/injection, schedule: Q01DX009 (ip), vehicle: saline with Tween-80 94 % of control | [25] 111 % of control | [1] 94 % of control | [26] 114 % of control | [27] 111 % of control | [4] 97 % of control | [28] 107 % of control | [29] 93 % of control | [30] 88 % of control

CC12NC(=O)NC(=O)N1CCS2 (stereo not drawn)
inactive: dose: 50.0 mg/kg/injection, schedule: Q01DX001 (ip), vehicle: saline 100 % of control | [19] 106 % of control | [20] 102 % of control | [21] 100 % of control

CC(=O)c1cccc(NC(=O)Nc2ncccc2C)c1
inactive: [25] 102 % of control | [27] 101 % of control | [29] 98 % of control

O=C(Nc1ccc(Cl)cc1C(=O)c1ccccc1)c1ccc(Cl)cc1
inactive: [26] 92 % of control | [28] 89 % of control | [30] 95 % of control

O=C1C=CC(=O)C2C3C=CC(CC3)C12 (stereo not drawn)
inactive: [19] 107 % of control | [20] 98 % of control | [21] 98 % of control

CCCCN1C(=O)CC(C23C(=O)N(CCCC)C(=O)C2CCc2ncccc23)C1=O (stereo not drawn)
inactive: [25] 87 % of control | [22] 94 % of control | [27] 89 % of control | [23] 99 % of control | [29] 87 % of control | [24] 90 % of control

C=C(C)C(=O)OCC(O)C[N+](C)(C)C (stereo not drawn)
inactive: [14] 98 % of control | [16] 101 % of control | dose: 75.0 mg/kg/injection, schedule: Q01DX001 (ip), vehicle: saline 101 % of control | [2] 97 % of control | dose: 150.0 mg/kg/injection, schedule: Q01DX001 (ip), vehicle: saline 98 % of control

O=C(C=C(C(F)(F)F)C(F)(F)F)c1cccc(C(F)(F)F)c1
inactive: dose: 12.5 mg/kg/injection, schedule: Q01DX009 (ip), vehicle: saline with Tween-80 102 % of control | dose: 25.0 mg/kg/injection, schedule: Q01DX009 (ip), vehicle: saline with Tween-80 95 % of control | [8] 89 % of control

CCCCCC(C)N (stereo not drawn)
inactive: dose: 5.0 mg/kg/injection, schedule: Q01DX001 (ip), vehicle: saline 101 % of control | [12] 101 % of control | [13] 95 % of control | [15] 103 % of control | [18] 101 % of control

CN(C)C1c2cc(Cl)ccc2-c2c(N)cc(Cl)cc21 (stereo not drawn)
inactive: dose: 50.0 mg/kg/injection, schedule: Q01DX001 (ip), vehicle: carboxymethylcellulose (CMC) 95 % of control | dose: 100.0 mg/kg/injection, schedule: Q01DX001 (ip), vehicle: carboxymethylcellulose (CMC) 98 % of control | dose: 200.0 mg/kg/injection, schedule: Q01DX001 (ip), vehicle: carboxymethylcellulose (CMC) 98 % of control | dose: 400.0 mg/kg/injection, schedule: Q01DX001 (ip), vehicle: carboxymethylcellulose (CMC) 93 % of control
